Results as given in patent US4423063A, “2,4-Dioxo-4-substituted-1-butaoic acid derivatives useful in treating urinary track calcium oxalate lithiasis” (Merck & Co., Inc., priority 1982, dated 1983).
pIC50: −log10 of the molar value. One block for each compound: values may come before it.

Molecular target: T1, pig liver glycolate oxidase (Sus scrofa, UniProt I3LVF1)
T1 construct: The enzyme was pig liver glycolate oxidase; from tissue; host or cells: pig liver
T1 sequence (I3LVF1 1-370): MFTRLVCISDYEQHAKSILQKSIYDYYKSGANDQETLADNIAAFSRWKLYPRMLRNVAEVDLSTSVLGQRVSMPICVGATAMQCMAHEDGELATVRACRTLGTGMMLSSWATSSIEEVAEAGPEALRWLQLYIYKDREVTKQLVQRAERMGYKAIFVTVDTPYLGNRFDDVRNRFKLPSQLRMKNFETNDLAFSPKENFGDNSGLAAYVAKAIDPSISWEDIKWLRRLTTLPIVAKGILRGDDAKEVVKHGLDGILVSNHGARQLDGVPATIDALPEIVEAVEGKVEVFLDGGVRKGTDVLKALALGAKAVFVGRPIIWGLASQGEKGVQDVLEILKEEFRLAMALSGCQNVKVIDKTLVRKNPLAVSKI
Assay: Glycolate oxidase enzyme inhibition
Assay type: biochemical
Settings: 25° C., 0.10 M phosphate buffer pH 7.0, 3 mM EDTA, 2×10^-4 M sodium glycolate
Method: The usefulness of the compounds of the present invention in treating urinary tract, especially renal, calcium oxalate lithiasis, is shown by the ability of those compounds to inhibit the glycolate oxidase enzyme. […] The activity of the enzyme, in turn, was measured by following the rate of reduction of sodium 2,6-dichlorophenol-indophenol by sodium glycolate in the presence of the enzyme. The enzyme was pig liver glycolate oxidase. The reaction was followed spectrophotometrically at 600 nm. The assay was conducted at 25° C. in a 0.10 M phosphate buffer, pH 7.0, containing 3 mM EDTA. Initial substrate concentrations were 5×10^-5 M of sodium 2,6-dichlorophenol-indophenol and 2×10^-4 M of sodium glycolate. Reactions were initiated by the addition of enzyme. Initial rates during the period from 1 to 3 min. after the addition of enzyme were recorded on a Beckman Acta M-VI spectrophotometer. One control was run simultaneously with three test reactions and all initial rates were adjusted to a common control rate. For further details of this procedure, see Randall et al., J. Med. Chem., 22, 6, 612 (1979).

pIC50: 6.38
Compound: O=C(O)C(=O)CC(=O)c1ccc(-c2ccc(SCc3ccccc3)cc2)cc1 [4-[[4'-[(Phenylmethyl)thio]-1,1'-biphenyl]-4-yl]-2,4-dioxo-1-butanoic acid]

pIC50 (unit inferred): 6.82
Compound: CSc1ccc(-c2ccc(C(=O)CC(=O)C(=O)O)cc2)cc1 [4-[(4'-Methylthio-1,1'-biphenyl)-4-yl]-2,4-dioxo-1-butanoic acid]

pIC50: 7.05
Compound: O=C(O)C(=O)CC(=O)c1ccc(-c2ccc(SCCc3ccncc3)cc2)cc1 [4-[[4'-[2-(4-Pyridinylethyl)thio]-1,1'-biphenyl]-4-yl]-2,4-dioxo-1-butanoic acid]

Further lines, the compound ahead of its results:

Compound: O=C(O)C(=O)CC(=O)c1ccc(-c2ccc(S)cc2)cc1 [4-[(4'-Mercapto-1,1'-biphenyl)-4-yl]-2,4-dioxo-1-butanoic acid]
pIC50: 5.68

Compound: O=C(O)C(=O)CC(=O)c1ccc(-c2ccc(SCC3(O)COc4ccccc4OC3)cc2)cc1 [4-[[4'-[(3,4-dihydro-3-hydroxy-2H-1,5-benzodioxepin-3-yl)methylthio]-1,1'-biphenyl]-4-yl]-2,4-dioxo-1-butanoic acid]
pIC50: 7.21
